Tests used:
CB2 receptor = target: T1, CB2 receptor (Homo sapiens, UniProt P34972); assay: CB2 binding procedure, displacement of [3H]CP-55,940 from membranes of transfected CHO cells; conditions: for CB1/CB2: ratio of CB1 Ki to CB2 Ki; for Ki: Table 6, read-out: CB2 KI
T1 construct: expressed in transfected cells
Protocol: Membranes for CB2 binding were obtained from CHO cells. The transfected cell line was maintained in Dublecco's Modified Eagle Medium (Gibco BRL, Grand Island, N.Y.) with 10% fetal clone II (HyClone Laboratories, Inc., Logan, Utah) plus 0.3 to 0.5 mg/ml G418 (to maintain selective pressure) under 5% CO2 at 37% C. Cells were harvested with 1 mM EDTA in phosphate-buffered saline and were centrifuged at 1000×g for 5 min at 4% C. The supernatant was saved and the P1 pellet was resuspended in centrifugation buffer. Homogenization and centrifugation were repeated twice and the combined supernatant fractions were centrifuged at 40,000×g for 30 min at 4% C. The P2 pellet was resuspended in centrifugation buffer 2 (Tris HCl, 50 mM; EDTA, 1 mM; and MgCl2, 3 mM, pH 7.4) to a protein concentration of approximately 2 mg/ml. Protein concentrations were determined by the method of Bradford (1976) using Bio-Rad Protein Assay (Bio-Rad, Richmond, Calif.) and BSA standards (fatty acid free, Sigma Chemical Co., St. Louis, Mo.). The membrane preparation was divided into amounts convenient for binding assays and frozen rapidly in dry ice and stored at −80% C.
Binding was initiated by the addition of 50•g of quickly thawed P2 membranes to test tubes containing [^3H]CP-55,940 (final reaction concentration 0.5 nM), an appropriate concentration of unlabeled CP-55,940 or test drug, and sufficient quantity of assay buffer (50 mM Tris-HCl, 1 mM EDTA, 3 mM MgCl2, 5 mg/ml bovine serum albumin, pH 7.4) to bring the total incubation volume to 0.5 ml. Concentration of [^3H]CP-55,940 in saturation studies ranged from 50 to 10,000 pM. […] CP-55,940 and all cannabinoid analogs were-prepared by suspension in assay buffer from a 1 mg/ml ethanolic stock without evaporation of the ethanol (final concentration of no more than 0.4%). In competition studies, analog concentrations ranged from 0.1 nM to 10•M. After incubation at […] for 1 hr, binding was terminated by the addition of 2 ml of ice-cold wash buffer (50 mM Tris-HCl and 1 mg/ml BSA) and vacuum filtration through pre-treated filters in a 12-well sampling manifold (Millipore, Bedford, Mass.). Reaction vessels were washed once with 2 ml of ice-cold wash buffer. Filters were placed into 7-ml plastic scintillation vials (RPI Corp., Mount Prospect, Ill.) with 4 ml of Budget-Solve (RPI Corp.). After shaking for 30 min, the radioactivity present was determined by liquid scintillation spectrometry. Three reaction vessels were used for each drug concentration in each assay. The results represent the combined data of three independent experiments. All assays were performed in siliconized test tubes, which were prepared by air drying (12 hr) inverted borosilicate tubes after two rinses with a 0.1% solution of AquaSil (Pierce, Rockford, Ill.). The GF/C glass-fiber filters (2.4 cm, Baxter, McGaw Park, Ill.) were pre-treated in a 0.1% solution of pH 7.4 polyethylenimine (Sigma Chemical Co.) for at least 6 hr.
(§1) In addition, multiple linear regression was used to calculate the overall degree of relationship between CB1 binding affinity and potency in the mouse measures for all active cannabinoids. […] Ki values for CB1 and CB2 binding were obtained from Scatchard displacement analysis as determined via EBDA program of the KELL software package (Biosoft, Milltown, N.J.).

CB1 receptor = target: T2, CB1 receptor (Rattus norvegicus, UniProt P20272); assay: CB1 binding procedure, displacement of [3H]CP 55,940 from rat whole-brain P2 membranes; conditions: for Ki: Table 6, read-out: CB1 KI
T2 construct: whole brain was homogenized and centrifuged; from tissue; host or cells: whole brain of male Sprague-Dawley rats, P2 membrane fraction
Protocol: Male ICR mice (25-32 g), obtained from Harlan (Dublin, Va.), were housed in groups of five. All animals were kept in a temperature-controlled (20-22° C.) environment with a 12-hour light-dark cycle (lights on at 7 a.m.). Separate mice were used for testing each drug dose in the in vivo behavioral procedures. Brain tissue for binding studies was obtained from male Sprague-Dawley rats (150-200 g) purchased from Harlan Laboratories (Dublin, Va.).
The methods used for tissue preparation and binding have been described previously (Compton et al., 1993) and are similar to those described by Devane et al. (1988). All assays, as described briefly below, were performed in triplicate, and the results represent the combined data from three to six individual experiments.
Following decapitation and rapid removal of the brain, whole brain was homogenized and centrifuged. The resulting pellet was termed P1. The supernatant was saved and combined with the two subsequent supernatants obtained from washing of the P1 pellet. The combined supernatant fractions were centrifuged, resulting in the P2 pellet. After further incubation and centrifuging, this pellet was resuspended in assay buffer to a protein concentration of approximately 2 mg/ml. The membrane preparation was quickly frozen in a bath solution of dry ice and 2-methylbutane (Sigma Chemical Co., St. Louis, Mo.), then stored at −80° C. for no more than 2 weeks. Prior to performing a binding assay an aliquot of frozen membrane was rapidly thawed and protein values determined by the method of Bradford (1976).
Binding was initiated by the addition of 150•g of P2 membrane to test tubes containing 1 nM of [^3H] CP 55,940 (79 Ci/mmol) and a sufficient quantity of buffer to bring the total incubation volume to 1 ml. […] Following incubation at 30° C. for 1 hr, binding was terminated by addition of ice cold buffer and vacuum filtration through pretreated filters in a 12-well sampling manifold (Millipore, Bedford, Mass.). After washing, filters were placed into plastic scintillation vials (Packard, Downer Grove, Ill.) and shaken. The quantity of radioactivity present was determined by liquid scintillation spectrometry.
as §1

T1 sequence (P34972 whole entry): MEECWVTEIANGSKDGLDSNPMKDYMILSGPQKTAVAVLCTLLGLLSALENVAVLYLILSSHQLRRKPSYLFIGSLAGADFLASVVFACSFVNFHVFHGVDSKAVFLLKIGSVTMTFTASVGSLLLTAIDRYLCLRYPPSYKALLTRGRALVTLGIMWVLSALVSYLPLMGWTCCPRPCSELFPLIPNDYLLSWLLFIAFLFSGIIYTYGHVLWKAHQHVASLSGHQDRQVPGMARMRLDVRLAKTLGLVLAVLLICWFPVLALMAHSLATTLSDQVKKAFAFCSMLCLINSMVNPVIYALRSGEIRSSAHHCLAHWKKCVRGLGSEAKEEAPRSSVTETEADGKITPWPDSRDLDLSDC
T2 sequence (P20272 whole entry): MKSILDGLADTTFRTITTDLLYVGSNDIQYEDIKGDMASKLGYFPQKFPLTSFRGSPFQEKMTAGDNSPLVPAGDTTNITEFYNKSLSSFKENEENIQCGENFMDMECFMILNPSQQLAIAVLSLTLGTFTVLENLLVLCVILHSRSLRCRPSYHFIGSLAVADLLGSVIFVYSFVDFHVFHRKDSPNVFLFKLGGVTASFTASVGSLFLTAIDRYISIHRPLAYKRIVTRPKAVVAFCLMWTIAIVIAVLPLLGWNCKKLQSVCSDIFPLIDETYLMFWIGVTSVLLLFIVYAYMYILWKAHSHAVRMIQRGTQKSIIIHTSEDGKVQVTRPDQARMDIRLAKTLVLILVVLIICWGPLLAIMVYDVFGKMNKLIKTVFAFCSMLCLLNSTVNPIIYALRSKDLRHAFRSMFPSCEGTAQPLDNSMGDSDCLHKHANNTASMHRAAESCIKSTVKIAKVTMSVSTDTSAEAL

| SMILES | CB1/CB2 (CB2 receptor) | also measured |
| --- | --- | --- |
| CCCCCCC(C)(C)c1cc(O)c(C2CCCC(C)C2)c(O)c1 (mixture of isomers) [O-1657, 2-(3-Methylcyclohexyl)-5-(1′,1′-dimethylheptyl)-resorcinol] | 17 | – |
| CCCCCCC(C)(C)c1cc(O)c(C2CCCC(C)C2)c(O)c1 (single isomer, unassigned) [O-1798B, 2-(3-Methylcyclohexyl)-5-(1′,1′-dimethylheptyl)-resorcinolisomer B] | 8 | Ki (CB1 receptor): 4.33 ± 0.58 nM |
| CCCCCCC(C)(C)c1cc(OC)c(C2(O)CCC(O)CC2)c(OC)c1 (single isomer, unassigned) [O-2116A, 1-[4-(1,1-Dimethyl-heptyl)-2,6-dimethoxy-phenyl]-cyclohexane-1,4-olol (A)] | 21 | – |
| C=C(C)[C@@H]1CCC(C)=CC1c1c(O)cccc1O (single isomer, unassigned; (-)) [O-1847, (-)-2-(3-3,4-trans-p-menthadien-(1,8)-yl)-resorcinol] | – | Ki (CB1 receptor): > 10000 nM |
| C=C(C)[C@@H]1CCC(C)=CC1c1ccc(O)cc1O (single isomer, unassigned; (-)) [O-1848, (-)-4-(3-3,4-trans-p-menthadien-(1,8)-yl)-resorcinol] | – | Ki (CB1 receptor): > 10000 nM |
| C=C(C)[C@@H]1CCC(C)=CC1c1c(O)c(I)c(C)c(I)c1O (single isomer, unassigned; (-)) [O-1868, (-)-2-(3-3,4-trans-p-menthadien-(1,8)-yl)-1,6-dipdoorcinol] | – | Ki (CB1 receptor): > 10000 nM |
| CCCCCCC(C)(C)c1cc(O)c(C2CCCC(C)C2)c(O)c1 (single isomer, unassigned; isomer a) [O-1797A, 2-(3-Methylcyclohexyl)-5-(1′,1′-dimethylheptyl-resorcinol isomer A] | 12 | Ki (CB2 receptor): 0.44 ± 0.03 nM |
| CCCCCCC(C)(C)c1cc(O)c([C@H]2CCCC(C)C2)c(O)c1 (stereo in doubt) [O-1826, 2-(3R-Methylcyclohexyl)-5-(1′,1′-dimethylheptyl)-resorcinol] | 50 | – |
| CCCCCCC(C)(C)c1cc(OC)c(C2(O)CCC[C@@H](C)C2)c(OC)c1 (stereo in doubt) [compound 2137, 1-[4-(1,1-Dimethyl-heptyl)-2,6-dimethoxy-phenyl]-3-methyl-cyclohexanol] | – | Ki (CB1 receptor): 2670 ± 145 nM; Ki (CB2 receptor): 11 ± 2.18 nM |
| CCCCCCC(C)(C)c1cc(O)c(C2CCCCC2)c(O)c1 [O-1422, Cyclohexyl-5-(1′,1′-dimethylheptyl)-resorcinol] | 7 | – |
| CCCCCCC(C)(C)c1cc(O)c(C2=CCCCC2)c(O)c1 [O-1423] | 3 | – |
| CCCCCCC(C)(C)c1cc(O)c(C2CCSCC2)c(O)c1 [O-1425] | 13 | fold decrease in CB1 affinity (CB1 receptor; compared to O-1422): 14 fold; fold decrease in CB2 affinity (CB2 receptor; compared to O-1422): 8 fold |
| CCCC(C)(C)c1ccc(-c2cc(C)ccc2C(C)C)c(O)c1 [O-1532, 3-1′,1′-Dimethylbutyl-6-(2-isopropyl-5-methyl-phenyl)-phenol] | 8 | – |
| CCCCCCC(C)(C)c1ccc(-c2cc(CO)ccc2C(C)C)c(O)c1 [O-1601, 3-1′,1′-Dimethylhepyl-6-(2-isopropyl-5-hydroxy-methylphenyl)-phenol] | 2 | – |
| CCCCCCC(C)(C)c1cc(O)c(C2CCCCC2C)c(O)c1 (stereo not drawn) [O-1658, 2-(2-Methylcyclohexyl)-5-(1′,1′-dimethylheptyl)-resorcinol] | 16 | – |
| CCCCCCC(C)(C)c1cc(O)c(C2CCC(C)CC2)c(O)c1 (stereo not drawn) [O-1659, 2-(4-Methylcyclohexyl)-5-(1′,1′-dimethylheptyl)-resorcinol] | 9 | – |
| CCCCCCC(C)(C)c1cc(O)c(C2C3CC4CC(C3)CC2C4)c(O)c1 (stereo not drawn) [O-1660, 2-(2-Adamantanyl)-5-(1′,1′-di-methylheptyl)-resorcinol] | 2 | Ki (CB1 receptor): 7.5 ± 1.2 nM; Ki (CB2 receptor): 3.16 ± 0.81 nM |
| CCCCCCC(C)(C)c1cc(O)c(C2CCC(c3ccccc3)CC2)c(O)c1 (stereo not drawn) [O-1663, 2-(4-Phenylcyclohexyl)-5-(1′,1′-dimethylheptyl)-resorcinol] | 16 | – |
| CCCC(C)(C)c1cc(O)c(C2CCCC(C)C2)c(O)c1 (stereo not drawn) [O-1890, 2-(3-Methylcyclohexyl)-5-(1′,1′-dimethylbutyl)-resorcinol] | 7 | – |
| CCCCCCC(C)(C)c1cc(OC)c(C2CCCC(C)C2)c(OC)c1 (stereo not drawn) [O-1999, 5-(1,1-Dimethyl-heptyl)-1,3-dimethoxy-2-(3-methyl-cyclohexyl)-benzeno] | – | fold reduction in affinity for CB2 receptors (CB2 receptor; compared to O-1657): ~600 fold |
| CCCCCCC(C)(C)c1cc(OC)c(C2(O)CCCC(C)(C)C2)c(OC)c1 (stereo not drawn) [O-2068, 1-[4-(1,1-Dimethylheptyl)-2,6-dimethoxyphenyl]3,3-dimethyl-cyclohexanol] | 47 | – |
| CCCCCCC(C)(C)c1cc(OC)c(C2(O)CCCCC2)c(OC)c1 [O-2072, 1-[4-(1,1-Dimethylheptyl)-2,6-dimethoxyphenyl]-cyclohexanol] | 55 | – |
| CCCCCCC(C)(C)c1cc(OCC)c(C2(O)CCCC(C)C2)c(OCC)c1 (stereo not drawn) [O-2090, 1-[4-(1,1-Dimethylheptyl)-2,6-dietlphenyl]-3-methyl cyclohexane-1-ol] | 10 | – |
| CCCCCCC(C)(C)c1cc(OC)c(C2(O)CCCCCC2)c(OC)c1 [O-2091, 1-[4-(1,1-Dimethylheptyl)-2,6-dimephenyl]-cycloheptan-1-ol] | 50 | – |
| CCCCCCC(C)(C)c1cc(OC)c(C2(O)CCC3(CC2)OCCO3)c(OC)c1 [O-2092, 8-[4-(1,1-Dimethylheptyl)-2,6-dimephenyl]-1,4-dioxaspiro[4,5]decan-] | 36 | – |
| CCCCCCC(C)(C)c1cc(OC)c(C2=CCC(=O)CC2)c(OC)c1 [O-2114, 4-[4-(1,1-Dimethyl-heptyl)-2,6-dimethoxy-phenyl]-cyclohex-3-enone] | 5 | – |
| CCCCCCC(C)(C)c1cc(OC)c(C2(O)CC(C)CC(O)C2)c(OC)c1 (stereo not drawn) [O-2121] | 20 | – |
| CCCCCCC(C)(C)c1cc(OC)c(C23CCC(O)CC2O3)c(OC)c1 (stereo not drawn) [O-2122, 6-[4-(1,1-Dimethyl-heptyl)-2,6-dimethoxy-phenyl]-7-oxa-bicyclo[4 1 0]heptan-3-ol] | 4 | – |
| CCCCCCC(C)(C)c1cc(OC)c(C2(O)CC(=O)CC(C)C2)c(OC)c1 (stereo not drawn) [O-2123, 3-[4-(1,1-Dimethyl-heptyl)-2,6-dimethoxy-phenyl]-3-hydroxy-5-methyl-cyclohexanone] | 14 | Ki (CB1 receptor): 7330 ± 117 nM |
| COc1cc(C)cc(OC)c1C1(O)CCCCC1 [O-2298, 1-(2,6-Dimethoxy-4-methyl-phenyl)-cyclohexanol] | – | Ki (CB1 receptor): > 10000 nM; Ki (CB2 receptor): > 10000 nM |

Source: patent US7285687B2 (priority 2002, dated 2007)
